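Assay format: 96-well plates, 48-hour exposure. TGI marks complete inhibition of growth.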
Assays:
Assay in all cases: growth of human tumour cells (NCI), 48 h
RXF 393 renal = test system: RXF 393 renal
SK-MEL-5 melanoma = test system: SK-MEL-5 melanoma
SR leukemia = test system: SR leukemia
LOX IMVI melanoma = test system: LOX IMVI melanoma
MCF7 breast = test system: MCF7 breast
MDA-MB-435 = test system: MDA-MB-435
UACC-62 melanoma = test system: UACC-62 melanoma
SF-295 CNS = test system: SF-295 CNS
HS 578T breast = test system: HS 578T breast
SNB-75 CNS = test system: SNB-75 CNS
KM12 colon = test system: KM12 colon
COLO 205 colon = test system: COLO 205 colon
K-562 leukemia = test system: K-562 leukemia
SK-MEL-2 melanoma = test system: SK-MEL-2 melanoma
OVCAR-3 ovarian = test system: OVCAR-3 ovarian
SF-539 CNS = test system: SF-539 CNS
NCI/ADR-RES ovarian = test system: NCI/ADR-RES ovarian
RPMI-8226 leukemia = test system: RPMI-8226 leukemia
HL-60(TB) leukemia = test system: HL-60(TB) leukemia
NCI-H226 lung = test system: NCI-H226 lung
MALME-3M melanoma = test system: MALME-3M melanoma
DU-145 prostate = test system: DU-145 prostate
A498 renal = test system: A498 renal
MOLT-4 leukemia = test system: MOLT-4 leukemia
PC-3 prostate = test system: PC-3 prostate
UO-31 renal = test system: UO-31 renal
HCT-116 colon = test system: HCT-116 colon
T-47D breast = test system: T-47D breast
CAKI-1 renal = test system: CAKI-1 renal
SNB-19 CNS = test system: SNB-19 CNS
786-0 renal = test system: 786-0 renal
MDA-MB-231 breast = test system: MDA-MB-231 breast
SW-620 colon = test system: SW-620 colon
BT-549 breast = test system: BT-549 breast
NCI-H522 lung = test system: NCI-H522 lung
HT29 colon = test system: HT29 colon
OVCAR-5 ovarian = test system: OVCAR-5 ovarian
NCI-H23 lung = test system: NCI-H23 lung
HOP-92 NSCLC = test system: HOP-92 NSCLC
SK-MEL-28 melanoma = test system: SK-MEL-28 melanoma
NCI-H460 lung = test system: NCI-H460 lung
OVCAR-8 ovarian = test system: OVCAR-8 ovarian
A549 NSCLC = test system: A549 NSCLC
IGROV1 ovarian = test system: IGROV1 ovarian
TK-10 renal = test system: TK-10 renal
M14 melanoma = test system: M14 melanoma
U251 CNS = test system: U251 CNS
HCC-2998 colon = test system: HCC-2998 colon
HOP-62 NSCLC = test system: HOP-62 NSCLC
SK-OV-3 ovarian = test system: SK-OV-3 ovarian
SN12C renal = test system: SN12C renal
ACHN renal = test system: ACHN renal
EKVX NSCLC = test system: EKVX NSCLC
UACC-257 melanoma = test system: UACC-257 melanoma
OVCAR-4 ovarian = test system: OVCAR-4 ovarian
SF-268 CNS = test system: SF-268 CNS
MDA-N = test system: MDA-N
HCT-15 colon = test system: HCT-15 colon
CCRF-CEM leukemia = test system: CCRF-CEM leukemia
LXFL 529 NSCLC = test system: LXFL 529 NSCLC
DMS 114 small cell lung = test system: DMS 114 small cell lung
DMS 273 small cell lung = test system: DMS 273 small cell lung
M19-MEL melanoma = test system: M19-MEL melanoma
SNB-78 CNS = test system: SNB-78 CNS

Structure (SMILES): Cc1ccc2c3ccc4c(c3n(C)c2c1)C(=O)C=CC4=O
- TGI (RXF 393 renal): > 7.63 µM
- TGI (SK-MEL-5 melanoma): > 10 µM
- TGI (SR leukemia): 4.73 µM
- TGI (LOX IMVI melanoma): > 10 µM
- TGI (MCF7 breast): > 6.18 µM
- TGI (MDA-MB-435): > 10 µM
- TGI (UACC-62 melanoma): > 10 µM
- TGI (SF-295 CNS): > 10 µM
- TGI (HS 578T breast): > 10 µM
- TGI (SNB-75 CNS): > 10 µM
- TGI (KM12 colon): > 10 µM
- TGI (COLO 205 colon): 5.51 µM
- TGI (K-562 leukemia): 3.75 µM
- TGI (SK-MEL-2 melanoma): > 10 µM
- TGI (OVCAR-3 ovarian): 8.6 µM
- TGI (SF-539 CNS): > 9.21 µM
- TGI (NCI/ADR-RES ovarian): > 10 µM
- TGI (RPMI-8226 leukemia): 5.67 µM
- TGI (HL-60(TB) leukemia): 3.9 µM
- TGI (NCI-H226 lung): > 10 µM
- TGI (MALME-3M melanoma): 6.01 µM
- TGI (DU-145 prostate): > 10 µM
- TGI (A498 renal): > 10 µM
- TGI (MOLT-4 leukemia): 2.61 µM
- TGI (PC-3 prostate): > 10 µM
- TGI (UO-31 renal): > 10 µM
- TGI (HCT-116 colon): 4.95 µM
- TGI (T-47D breast): 5.92 µM
- TGI (CAKI-1 renal): > 10 µM
- TGI (SNB-19 CNS): > 10 µM
- TGI (786-0 renal): 5.63 µM
- TGI (MDA-MB-231 breast): > 10 µM
- TGI (SW-620 colon): 4.58 µM
- TGI (BT-549 breast): > 7.22 µM
- TGI (NCI-H522 lung): 4.75 µM
- TGI (HT29 colon): > 10 µM
- TGI (OVCAR-5 ovarian): > 10 µM
- TGI (NCI-H23 lung): > 10 µM
- TGI (HOP-92 NSCLC): 7.26 µM
- TGI (SK-MEL-28 melanoma): > 10 µM
- TGI (NCI-H460 lung): > 10 µM
- TGI (OVCAR-8 ovarian): > 10 µM
- TGI (A549 NSCLC): > 10 µM
- TGI (IGROV1 ovarian): > 10 µM
- TGI (TK-10 renal): > 10 µM
- TGI (M14 melanoma): > 10 µM
- TGI (U251 CNS): > 10 µM
- TGI (HCC-2998 colon): > 10 µM
- TGI (HOP-62 NSCLC): > 10 µM
- TGI (SK-OV-3 ovarian): > 10 µM
- TGI (SN12C renal): > 10 µM
- TGI (ACHN renal): > 10 µM
- TGI (EKVX NSCLC): > 10 µM
- TGI (UACC-257 melanoma): > 10 µM
- TGI (OVCAR-4 ovarian): > 7.77 µM
- TGI (SF-268 CNS): > 10 µM
- TGI (MDA-N): > 10 µM
- TGI (HCT-15 colon): > 10 µM
- TGI (CCRF-CEM leukemia): 0.844 µM

Structure (SMILES): C=C1C(=O)C23C(CC(OC(C)=O)C1[C@@H]2OC(C)=O)C1(C)C(OC(C)=O)CCC(C)(C)C1C[C@@H]3OC(C)=O (some centres not stated)
- TGI (RXF 393 renal): 0.831 µM
- TGI (SK-MEL-5 melanoma): 3.33 µM
- TGI (LOX IMVI melanoma): 2.63 µM
- TGI (UACC-62 melanoma): 3.72 µM
- TGI (SF-295 CNS): 2.86 µM
- TGI (LXFL 529 NSCLC): 2.63 µM
- TGI (SNB-75 CNS): 2.89 µM
- TGI (KM12 colon): 3.49 µM
- TGI (K-562 leukemia): 3.6 µM
- TGI (SK-MEL-2 melanoma): 3.37 µM
- TGI (OVCAR-3 ovarian): 3.03 µM
- TGI (SF-539 CNS): 3.16 µM
- TGI (RPMI-8226 leukemia): 4.68 µM
- TGI (HL-60(TB) leukemia): 2.51 µM
- TGI (NCI-H226 lung): 3.13 µM
- TGI (MALME-3M melanoma): 3.01 µM
- TGI (A498 renal): 3.4 µM
- TGI (UO-31 renal): 3.19 µM
- TGI (HCT-116 colon): 2.97 µM
- TGI (CAKI-1 renal): 1.94 µM
- TGI (SNB-19 CNS): 3.31 µM
- TGI (786-0 renal): 2.73 µM
- TGI (SW-620 colon): 2.75 µM
- TGI (DMS 114 small cell lung): 2.4 µM
- TGI (NCI-H522 lung): 1.66 µM
- TGI (HT29 colon): 2.22 µM
- TGI (DMS 273 small cell lung): 3.07 µM
- TGI (OVCAR-5 ovarian): 3.27 µM
- TGI (HOP-92 NSCLC): 1.35 µM
- TGI (SK-MEL-28 melanoma): 3.3 µM
- TGI (NCI-H460 lung): 3.37 µM
- TGI (M19-MEL melanoma): 3.16 µM
- TGI (OVCAR-8 ovarian): 1.59 µM
- TGI (A549 NSCLC): 3.05 µM
- TGI (IGROV1 ovarian): 2.87 µM
- TGI (M14 melanoma): 2.92 µM
- TGI (U251 CNS): 2.95 µM
- TGI (HCC-2998 colon): 3.24 µM
- TGI (HOP-62 NSCLC): 7.98 µM
- TGI (SK-OV-3 ovarian): 3.59 µM
- TGI (SNB-78 CNS): 3.14 µM
- TGI (SN12C renal): 2.8 µM
- TGI (ACHN renal): 2.92 µM
- TGI (EKVX NSCLC): 5.38 µM
- TGI (UACC-257 melanoma): 3.14 µM
- TGI (OVCAR-4 ovarian): 3.41 µM
- TGI (SF-268 CNS): 2.98 µM
- TGI (HCT-15 colon): 2.52 µM

Reference: PubChem BioAssay (NCI)
